# According to ChEMBL document CHEMBL1152891, “Design of novel aminopyrrolidine factor Xa inhibitors from a screening hit” (Eur J Med Chem, 2009):
# How the values were obtained:
# [1] = Aqueous solubility of the compound; assay type: physicochemical
# [2] = Lipophilicity, log D of the compound; assay type: physicochemical; conditions: octanol/water
# [3] = Tmax in rat at 1 mg, po; assay type: ADME, organism-based; conditions: in vivo
# [4] = Permeability across cell membrane; assay type: ADME; conditions: not told; read-out: permeability
# [5] = Oral bioavailability in rat at 1 mg, po; assay type: ADME, organism-based; conditions: in vivo
# [6] = Volume of distribution at steady state in rat at 1 mg, iv; assay type: ADME, organism-based; conditions: in vivo, read-out: Vdss
# [7] = Volume of distribution at steady state in rat at 0.5 mg, iv; assay type: ADME, organism-based; conditions: in vivo, read-out: Vdss
SMILES,"solubility ([1]; aqueous, read-out: solubility) [µg/mL]",logD [2],other results
O=C(Nc1nc(CC(=O)N2CCN(CC(=O)N3CCCC3)CC2)cs1)c1ccc(Cl)s1,> 640,2.1,–
CN1CCC(N2CCN(C(=O)Cn3ccc(NC(=O)c4ccc(Cl)s4)n3)CC2)CC1,> 601,0.1,–
CN1CCC(N2CCN(C(=O)Cc3csc(NC(=O)c4ccc(Cl)cc4)n3)CC2)CC1,> 620,0.6,–
O=C(CN1CC[C@H](NC(=O)c2ccc(Cl)s2)C1)Nc1ccc(-n2ccccc2=O)cc1F,166,2.3,–
O=C(CN1CC[C@@H](NC(=O)c2ccc(Cl)s2)C1)Nc1ccc(-n2ccccc2=O)cc1F,197,2.3,–
O=C(CN1C[C@H](NC(=O)c2ccc(Cl)s2)[C@@H](OCCO)C1)Nc1ccc(-n2ccccc2=O)cc1F,–,1.6,solubility ([1]; buffer): > 713 µg/mL; Tmax [3]: 15 min; Papp [4]: 0.4 ×10⁻⁶ cm/s; bioavailability [5]: 16%; Vd [6]: 1.1 L/kg
O=C(Nc1nc(CC(=O)N2CCN(CC(=O)N3CCCC3)CC2)cs1)c1ccc(Cl)cc1,> 580,2.2,–
O=C(CN1C[C@H](NC(=O)c2ccc(Cl)s2)[C@@H](O)C1)Nc1ccc(-n2ccccc2=O)cc1F,–,–,solubility ([1]; buffer): 516 µg/mL; Tmax [3]: 15 min; Vd [7]: 1.1 L/kg; Papp [4]: 1.5 ×10⁻⁶ cm/s; bioavailability [5]: 38%
CN1CCC(N2CCN(C(=O)Cc3csc(NC(=O)c4ccc(Cl)s4)n3)CC2)CC1,> 620,1,–
CN1CCC(N2CCN(C(=O)Cn3cnc(NC(=O)c4ccc(Cl)s4)n3)CC2)CC1,> 600,-0.5,–

# The next lines start with results.
"solubility ([1]; aqueous, read-out: solubility) [µg/mL]",logD [2],SMILES,other results
< 1,> 3,O=C(Cn1ccc(NC(=O)c2ccc(Cl)s2)n1)Nc1ccc(-n2ccccc2=O)cc1F,–
< 1,> 3,O=C(Cc1csc(NC(=O)c2ccc(Cl)cc2)n1)Nc1ccc(-n2ccccc2=O)cc1F,–
< 1,> 3,O=C(Cc1csc(NC(=O)c2ccc(Cl)s2)n1)Nc1ccc(-n2ccccc2=O)cc1F,–
< 1,2.4,O=C(Cn1nnc(NC(=O)c2ccc(Cl)s2)n1)Nc1ccc(-n2ccccc2=O)cc1F,–
1,2.4,O=C(Cn1cnc(NC(=O)c2ccc(Cl)s2)n1)Nc1ccc(-n2ccccc2=O)cc1F,Tmax [3]: 66 min; Vd [7]: 0.3 L/kg; Papp [4]: 0.9 ×10⁻⁶ cm/s; bioavailability [5]: 10%
